The values that follow come from patent publication US20030153081A1, “Viral core protein-cationic lipid-nucleic acid-delivery complexes” (priority 1999, published 2003).

Data set [1] has as its system ND7 cells. In words: X-gal staining, cationic lipid variations in ND7 cells. The class given is cell-based, rat/mouse. The conditions noted are these: ND7, Liposome:DNA 3:1 w/w. The method, then:
We determined whether LMD complexes could be bettered by incorporating poly cationic cholesterol lipids (WO 97/45442). CDAN (B198), ACHx (CJE52) and CTAP (B232) (FIG. 9) were used to make cationic liposomes in place of DC-Chol. Each cationic liposome system used was composed of 60 mol % of cationic lipid and 40 mol % of DOPE and prepared as described in Example 4. The following different LMD complex systems were prepared and compared: LMD(DC-Chol), LMD(B198), LMD(CJE52), and LMD(B232). All LMD systems were prepared with cationic liposomes (total lipid 20 μmol) and 0.6 mg of Mu1 peptide per 1.0 mg of DNA (pCMVβ), as described above.
Liposome:DNA (LD) complex mixtures (lipoplexes) were prepared for control experiments with a Liposome:DNA ratio of 3:1 (w/w), the optimal composition for transfection of ND7 cells.
Transfection in ND7 cells; ND7 cells were seeded in NGM (with 10% serum) at a density of approximately 4×10^4 cells per well, in a 24-well culture plate. After 24 h, cells were washed by brief exposure to NGM (serum free) and then treated with solutions containing LMD or LD complexes, prediluted with NGM (serum free) (final DNA concentration 2.5 μg/ml in all cases), for 1 h. Cells were then washed again and incubated for a further 48 h prior to processing for histochemical staining with X-gal. The number of cells stained blue were counted under an inverted microscope.

The test system of data set [2] is HeLa cells. The data set can be described thus: β-galactosidase assay, alternative cationic peptides in HeLa cells. Type of data set: cell-based, human. The conditions noted are these: DC-Chol:DOPE liposome:peptide:DNA 12:0.6:1, 30 min, DNA 1.0 μg/ml. As for the experimental part: In order to examine the effects of various alternative cationic peptides on transfection activities, a series of liposome:cationic peptide:DNA complexes were prepared and their relative transfection abilities analysed in vitro. The peptides used were poly-lysine hydrochloride (average molecular weight 3970, Sigma), poly arginine hydrochloride (average molecular weight 11800, Sigma) a peptide derived from protein V, pV (p5, sequence shown below), a peptide analogue of Mu1 (V, sequence shown below) and Mu1 peptide itself. The p5 peptide and V peptide were synthesized using the same solid-phase peptide synthesis methodology as was used to prepare Mu1 peptide.
Each peptide was combined with cationic liposome (DC-Chol:DOPE 3:2 m/m) and DNA (pCMVβ) in the liposome:peptide:DNA ratio of 12:0.6:1 (w/w/w) as described in Example 4. The transfection activities were examined using HeLa cells (human epithelial cells). The cells were seeded at an approximate density of 5×10^4 per well in a 24-well culture plate in DMEM supplemented with 10% FCS and grown for 24 h in the presence of 5% CO2 at 37° C. Cells were washed by brief exposure to DMEM and then treated with solutions containing LMD or LD complexes, prediluted with OPTIMEM (Gibco) (final DNA concentration 1.0 μg/ml in all cases), for 30 min. Cells were then washed again and incubated for a further 48 h in DMEM supplemented with 10% FCS prior to harvesting. The level of β-galactosidase enzyme activity was determined with a standard assay kit (chemiluminescent, Roche).

Data set [3] has as its system ND7 cells. The data set can be described thus: β-galactosidase reporter gene assay, transfection of undifferentiated ND7 cells. The class given is cell-based, rat/mouse. The conditions noted are these: peptide with cationic liposome, pCMVβ:liposome 1:3 w/w. As for the experimental part:
ND7 cells were seeded at a density of 5 ×10^4 cells/well in 24 well culture dishes 24 hrs prior to transfection. Immediately prior to transfection, cells were washed in serum-free media. Complexes were formed by incubating pCMVβ with Mu1 prior to the addition of the cationic liposome DC-Chol/DOPE. In each case 1 μg pCMVβ was complexed with 0.6, 6, 12, and 21 μg Mu1 peptide. Each of these combinations was then complexed with 3, 4 and 6 μg DC-Chol/DOPE. ND7 cells were exposed to transfection complexes for 2 hours then maintained at 37° C., 5% CO2 for another 24 hrs before being harvested and processed for β-galactosidase enzyme assay. Numbers represent means±SD, n=3.
pCMVβ plasmid DNA was complexed to various amounts of polycationic peptide and then mixed with cationic liposome at a ratio of 1:3 (pCMVβ:liposome; w/w). After being washed briefly in serum free media, ND7 cells were exposed to the […] complexes for two hours and then returned to serum containing media Twenty-four hours later the cells were harvested and processed for β-galactosidase enzyme assay. Each condition was performed in triplicate and each experiment replicated three times. Numbers represent means±SD.
ND7s are a well-characterized cell line derived from the fusion of a neuroblastoma N18Tg2) with neonatal rat sensory neurons ^28. The cell line was maintained in normal growth media (NGM) (Leibovitz's L-15 media (BRL) enriched with 10% Fetal bovine serum (BRL), 4 g/L glucose, 4 g/L sodium bicarbonate (BRL), 100 IU/mL penicillin/streptomycin (BRL)) at 37° C. and 5% CO2. The cells were plated onto 24 well plates (Costar) at a density that produced 70% confluence after 24 hours.
Since initial experiments determined that the presence of fetal bovine serum inhibited transfection of ND7 cells serum-free differentiation media was used for all transfections. Various amounts of DNA and liposome were placed in the bottom of a 7 mL sterile Bijou container (Bibby Sterilin Ltd., Staffordshire, U.K.), but not in contact with each other.
DNA and liposomes were combined by the addition of 400 μL serum-free differentiation media and gentle shaking. The DNA: liposome mixture was incubated at room temperature for 20 to 30 minutes before being applied to the cells. The DNA/liposome mixture was then applied to the cells and incubated at 37° C., 5% CO2 for 2 hours after which this media was replaced with complete media Twenty four to 48 hours later the cells were fixed and processed for X-gal histochemistry as described ^31 or harvested for β-galactosidase enzyme assays (Promega Corp.).
Transfection complexes including the test peptides were generated in the following manner. Various amounts of peptide was placed in the bottom of sterile polystyrene containers alongside, but not in contact with 1 μg·pCMVβ and mixed by adding 400 μl serum free NGM media The complexes were incubated at room temperature for 10 minutes after which DC-Chol/DOPE was added. The pDNA/peptide/liposome complex was further incubated at room temperature for 20 minutes and then administered to cells as above.
We examined the ability of Mu1 and Vp1 to enhance the transfection of a neuronal cell line by cationic liposomes using a β-Galactosidase reporter gene assay. ND7 cells were transfected with pCMVβ complexed to varying amounts of peptide and DC-Chol/DOPE. We have previously shown that the cationic liposome DC-Chol/DOPE is capable of efficiently transfecting the neuronally derived ND7 cell line ^31. […] Temporally, maximal levels of transgene expression are obtained between 48-60 hours post transfection. Therefore, in order to maximize the chance of detecting improvements in transfection we performed all our assays within 12-20 hours of transfection at a time when levels of reporter gene expression were lower. Previously we found a pDNA: liposome ratio of 1:3 (w/w) optimal for transfections in ND7 cells ^31. […]

In data set [4] the test system is plasmid DNA (pCMVβ). In words: gel retardation assay (DNA binding analysis). As for the experimental part: One microgram of pCMVβ was incubated with 0 μg (lane 2), 5 μg (lane 3), 10 μg (lane 4), 15 μg (lane 5), 20 μg (lane 6), 25 μg (lane 7) and 30 μg (lane 8) of BSA for 10 minutes at room temperature in 1× HBS. Samples were then analyzed on a 1% agarose gel for altered mobility.
When ratios of 0.5 (w/w) or greater were used, however, migration of both forms of pDNA was severely retarded.
C). The Polyomavirus protein Vp1 was much less efficient at preventing pDNA migration. pCMVβ (1 μg) was incubated with 2 μg (lane 2), 4 μg (lane 3), 6 μg (lane 4), 8 μg (lane 5), 16 μg (lane 6), 32 μg (lane 7) and 0 μg (lane 8) Vp1. Only ratios of 6 or higher (protein: pDNA, w/w) caused significant retardation of supercoiled pDNA (lane 6, lower band). Also, not until a ratio of 32 (w/w) was used was there any effect on relaxed pDNA (lane 7, upper band). In all gels lane 1 corresponds to 1 Kb DNA marker (BRL).
The purified peptides were reconstituted in sterile distilled H2O at 3 mg/mL. Peptide and pDNA were complexed in 20 μL HEPES buffered saline (137 mM NaCl, 5 mM KCl, 0.75 mM Na2HPO4, 19 mM HEPES, pH 7.4) for 20 minutes at room temperature. Peptide: pDNA complexes were subsequently analyzed by agarose gel electrophoresis (1%). Control incubations for general macromolecular pDNA interactions were performed with varying amounts of molecular biology grade purified bovine serum albumin (Sigma).
Varying amounts of purified peptide were incubated at room temperature in HBS for approximately 10 minutes and then analyzed by agarose gel electrophoresis. Without the addition of peptide, supercoiled and relaxed circular plasmid DNA (pDNA) migrated in the expected manner (FIG. 1, lane 8).

Data set [5] can be described thus: charge ratios worked out from the sequence. Type of data set: physicochemical. The source says:
Mu1 is a polycationic peptide comprised of 19 amino acids associated with the core complex of Adenovirus (Table 1) ^27, 32. We compared the DNA binding capacity of Mu1 with the mouse polyomavirus major capsid protein Vp1 by interaction with plasmid DNA in a gel retardation assay. Vp1 is a 19 amino acid peptide that contains a nuclear localization signal ^26 and contains fewer positively charged amino acids than Mu1. It was therefore predicted to have a lower DNA binding capacity.
The success of non-viral gene delivery vehicles as viable alternatives to virus vector-based systems is dependent on the development of complexes with higher and longer lasting transfection efficiencies. Since the initial identification of cationic liposomes as vehicles for the transfer of genetic material into cells there has been a large push to develop better cationic liposome formulations ^5, 7. Most attempts at improving cationic liposomes have been based on structural modifications to the molecule itself ^30. Novel formulations have been developed which have improved transfection efficiencies ^30. However, particular cell types behave differently in regards to cationic liposomal transfection. For example, we found the polypeptide Mu1 better at enhancing cationic liposome mediated transfection than Vp1. This was probably due to Mu1's greater charge ratio. While both peptides are approximately the same molecular weight, the overall charge ratio of Mu1 was more than twice that of Vp1 (Table 1). […] While a small shift in pDNA mobility was detected when 0.25 μg Mu1 was complexed to 1 μg pCMVβ, almost all of the plasmid was retained near the loading well following addition of 0.5 μg Mu1 (FIG. 1). A 0.5/1.0 (w/w) ratio of Mu1 to pCMVβ corresponds to a 1000/1 molar ratio. Each molecule of Mu1 contains 12 residues that could potentially carry a positive charge. The theoretical charge ratio of Mu1 to pCMVβ would then be 1.6 (12000 Mu1 cations to 7500 pCMVβ anions).

As to `CC(C)CCC[C@@H](C)[C@H]1CC[C@H]2[C@@H]3CC=C4C[C@@H](OC(=O)NCCN(C)C)CC[C@]4(C)[C@H]3CC[C@]12C` [DC-Chol, 3β[N-(N′,N′-dimethylaminoethane)carbamoyl] cholesterol, reference compound], the “rank order in transfection efficiency, corresponding LD systems” value in data set [1] is listed as “B198>DC-Chol>B232”.

On to “VRRVHHRRRRVSHRRVRGG [peptide analogue of Mu1]”, for which the “transfection activity compared to poly lysine and poly arginine complexes” value in data set [2] is on record as “excellent transfection activity”.

For “NH2—Met—Ala—Pro—Lys—Arg—Lys—Ser—Gly—Val—Ser—Lys—Cys—Glu—Thr—Lys—Cys—Thr—Pro—Pro—OH (H-MAPKRKSGVSKCETKCTPP-OH; cysteine pairing not given here) [Vp1, 19 amino acid peptide of mouse polyomavirus major capsid protein Vp1, contains a nuclear localization signal, reference compound]”, in data set [3], the “improvement on transfection efficiency” value is “no improvement on transfection efficiency”. In data set [4] (1 μg pCMVβ, 1% agarose gel), the “ratio protein:pDNA at which there was first any effect on relaxed pDNA” value was found to be 32 w/w and the “ratio protein:pDNA causing significant retardation of supercoiled pDNA” value is listed as not below 6 w/w. In addition, the “effect on electrophoretic mobility of plasmid DNA” value in data set [4] (pDNA:protein ratios up to 1:8 (w/w)) is listed as “no effect on the electrophoretic mobility”. The Charge/AA ratio in data set [5] is listed as 0.26.

Turning to `CC(C)CCCC(C)C1CCC2C3CC=C4CC(OC(=O)NCCNCCCNCCN)CCC4(C)C3CCC12C` (stereo not drawn) [B198], in data set [1], the “rank order in transfection efficiency, corresponding LD systems” value was “B198>DC-Chol>B232”.

Consider “RPRRRATTRRRTTTGTRRRRRRR [p5, peptide derived from protein V, pV]”, for which the “transfection activity compared to poly lysine and poly arginine complexes” value in data set [2] is reported as “excellent transfection activity”.
